Columns and labels:
[1] = system: Erysiphe graminis f sp. tritici; assay: Test J: wheat powdery mildew, preventive spray on wheat seedlings, visual disease rating; settings: wheat powdery mildew, preventive spray; 100 = 100% disease control, 0 = no control
Septoria nodorum = assay: Test F: Septoria glume blotch, preventive spray on wheat seedlings, visual disease rating; settings: Septoria glume blotch on wheat, preventive spray; 100 = 100% disease control, 0 = no control
[2] = system: Puccinia recondita f. sp. tritici; assay: Test I: wheat leaf rust, preventive spray on wheat seedlings, visual disease rating; settings: wheat leaf rust, preventive spray; 100 = 100% disease control, 0 = no control
Text: General protocol for preparing test suspensions for Tests A-J: the test compounds were first dissolved in acetone in an amount equal to 3% of the final volume and then suspended at the desired concentration (in ppm) in acetone and purified water (50/50 mix by volume) containing 250 ppm of the surfactant Trem® 014 (polyhydric alcohol esters). The resulting test suspensions were then used in Tests A-J. Spraying a 200 ppm test suspension to the point of run-off on the test plants was the equivalent of a rate of 500 g/ha. Unless otherwise indicated, the rating values indicate a 200 ppm test suspension was used. (An asterisk “*” next to the rating value indicates a 40 ppm test suspension was used.)
The test suspension was sprayed to the point of run-off on wheat seedlings. The following day the seedlings were inoculated with a spore suspension of Puccinia recondita f. sp. tritici (the causal agent of wheat leaf rust) and incubated in a saturated atmosphere at 20° C. for 24 h, and then moved to a growth chamber at 20° C. for 7 days, after which time visual disease ratings were made
A dash (-) indicates no test results.

Septoria tritici = assay: Test G: wheat leaf blotch, preventive spray on wheat seedlings, visual disease rating; settings: wheat leaf blotch, preventive spray; 100 = 100% disease control, 0 = no control
Botrytis cinerea = assay: Test B: tomato Botrytis, preventive spray on tomato seedlings, visual disease rating; settings: tomato Botrytis, preventive spray; 100 = 100% disease control, 0 = no control
Alternaria solani = assay: Test C: tomato early blight, preventive spray on tomato seedlings, visual disease rating; settings: tomato early blight, preventive spray; 100 = 100% disease control, 0 = no control
[3] = system: Puccinia recondita f. sp. tritici; assay: Test H: wheat leaf rust, curative spray on inoculated wheat seedlings, visual disease rating; settings: wheat leaf rust, curative spray; 100 = 100% disease control, 0 = no control

SMILES | Test J rating (% disease control) [1] | Test F rating (% disease control) (Septoria nodorum) | Test I rating (% disease control) [2] | Test G rating (% disease control) (Septoria tritici) | Test B rating (% disease control) (Botrytis cinerea) | Test C rating (% disease control) (Alternaria solani) | Test H rating (% disease control) [3]
CCn1nc(C)c(-c2ccc(Cl)cc2)c1Nc1c(F)cccc1F [compound 61] | 73% | 0% | 38% | 99% | 97% | 0% | 0%
COc1cc(F)c(Nc2c(-c3ccc(Cl)cc3Cl)c(C)nn2C)c(F)c1 [compound 62] | 99% | 84% | 99% | 98% | 99% | 98% | 98%
CCn1nc(C)c(-c2c(F)cccc2F)c1Nc1cc(OC)cc(OC)c1 [compound 63] | 0% | 0% | 0% | 0% | 0% | 0% | 0%
Cc1nn(C)c(Oc2ncc(Cl)cc2Cl)c1-c1c(F)cc(F)cc1F [compound 64] | 98% | 0% | 95% | 100% | 97% | 80% | 0%
CCOC(=O)Cn1nc(C)c(-c2c(F)cc(F)cc2F)c1Oc1c(F)cc([N+](=O)[O-])cc1F [compound 65] | 0% | 0% | 58% | 1% | 0% | 0% | 0%
COc1cc(F)c(-c2c(C)nn(C)c2Nc2ccc(C)cn2)c(F)c1 [compound 66] | 99% | 0% | 100% | 100% | 100% | 99% | 6%
Cc1nn(C)c(Nc2ccc(C#N)cn2)c1-c1ccc(F)cc1Cl [compound 67] | 86% | 0% | 95% | 99% | 95% | 0% | 24%
Cc1nn(CC(=O)O)c(Oc2c(F)cc([N+](=O)[O-])cc2F)c1-c1c(F)cc(F)cc1F [compound 68] | 0% | 0% | 0% | 0% | 0% | 0% | 6%
CCn1nc(C)c(-c2ccc(Cl)cc2Cl)c1Nc1ccc(F)cc1F [compound 70] | 98% | 0% | 85% | 99% | 99% | 0% | 41%
CC(=O)Nc1ccc(Oc2c(-c3ccc(F)cc3Cl)c(C)nn2C)c(F)c1 [compound 71] | 67% | 0% | 91% | 96% | 93% | 0% | 0%
COc1ccc(Nc2c(-c3ccc(F)cc3F)c(C)nn2C)cc1OC [compound 72] | 0% | 0% | 0% | 0% | 0% | 0% | 59%
Cc1nn(C)c(Nc2ncc(Cl)cc2Cl)c1-c1ccc(F)cc1Cl [compound 73] | 99% | 64% | 100% | 100% | 100% | 99% | 88%
COc1ccc(Nc2c(-c3ccc(Cl)cc3Cl)c(C)nn2C)cc1OC [compound 74] | 0% | 0% | 0% | 25% | 0% | 0% | 4%
Cc1nn(C)c(Nc2c(F)cc(F)cc2F)c1-c1ccc(Cl)cc1Cl [compound 75] | 97% | 98% | 99% | 99% | 100% | 98% | 95%
COc1cc(F)c(-c2c(C)nn(C)c2Oc2c(F)cc(N)cc2F)c(F)c1 [compound 77] | 0% | 0% | 97% | 95% | 99% | 0% | 6%
COc1cc(F)c(Nc2c(-c3c(F)cc(F)cc3F)c(C)nn2C)c(F)c1 [compound 78] | 91% | 0% | 89% | 98% | 99% | 82% | 0%

From patent US10448639B2, “Fungicidal pyrazoles” (FMC CORPORATION, priority 2009, dated 2019)
